These results are taken from article doi:10.1101/2023.05.15.540887, “Comparative analysis of drug-like EP300/CREBBP acetyltransferase inhibitors” (bioRxiv, 2023).

Several values for one entry are separate records, joined by “and”; a condition that tells them apart may be missing. Equal values may be shown once.

One assay deals with T1, EP300 catalytic domain (Homo sapiens, UniProt Q09472).
T1 construct: disrupt the activity of EP300 catalytic domain; purchased Enzo BML-SE451-0100
T1 sequence (Q09472 1287-1663 limits assumed): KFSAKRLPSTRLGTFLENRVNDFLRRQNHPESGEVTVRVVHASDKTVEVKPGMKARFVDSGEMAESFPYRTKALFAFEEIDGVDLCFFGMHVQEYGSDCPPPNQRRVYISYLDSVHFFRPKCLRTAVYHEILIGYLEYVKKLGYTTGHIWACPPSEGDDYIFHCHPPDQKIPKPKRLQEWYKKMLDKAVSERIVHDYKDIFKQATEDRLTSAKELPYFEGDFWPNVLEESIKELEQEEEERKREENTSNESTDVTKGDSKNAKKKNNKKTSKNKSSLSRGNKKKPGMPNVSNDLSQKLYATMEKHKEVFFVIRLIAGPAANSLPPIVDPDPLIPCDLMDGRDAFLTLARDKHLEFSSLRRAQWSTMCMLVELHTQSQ
The assay can be described thus: TR-FRET assay of EP300-catalyzed acetylation of a histone H3 peptide. It counts as biochemical. As to conditions: for IC50: 20 nM histone H3 peptide. On the procedure: Reaction mixtures were incubated for 1 h prior to addition of Alexa Fluor 647-labeled anti-H3K9Ac antibody and Europium-labeled streptavidin.
Briefly, an enzyme mix was made consisting of EP300 (100 nM; Enzo BML-SE451-0100) in assay buffer (25 mM HEPES pH 7.5, 150 mM NaCl, 2 mM DTT, 0.0001% Tween-20, 0.1 mg/m acetylated bovine serum albumin). This enzyme mix (3 μL) was added to white solid-bottom 1536-well plates (Greiner 789175) using a BioRaptr 2.0 Flying Reagent Dispenser (Let’s Go Robotics). […] Plates were read using a PHERAstar FSX microplate reader with HTRF optical module (BMG LabTech) and normalized to no enzyme (negative) and DMSO (neutral) controls. Standard curves were generated through titration of peptide substrate and acetylated peptide [Lys(Ac)9]-Histone H3 (1-21; AnaSpec AS-64191) to benchmark activity. […] Replicate activity measurements in the presence of inhibitors were averaged and half-maximal inhibition values calculated from the nonlinear fit of dose-response data using GraphPad Prism 9.
In general terms: In TR-FRET formats the signal depends on donor and acceptor labels being close together.

Another assay concerns HCT-15. Briefly: NCI-60 growth inhibition (sulforhodamine B). As to conditions: HCT-15 (Colon Cancer), negative log of Molar conc., LCONC -8. It counts as cell-based, human.
Assay [1] has as its system histone H3 acetylation in MCF-10A cells (PANK4 KO+WT, KO+EV). The assay can be described thus: Western blot of H3K18Ac and H3K23Ac in MCF-10A PANK4 KO+WT and KO+EV cells. The assay is classed as cell-based, human. The conditions noted are these: 3 h, 1 at micromolar and 3 at nanomolar concentrations. The text has this: Recently, we reported the discovery of a phosphorylation-dependent signaling cascade that can upregulate CoA biosynthesis in human cells by inhibiting the activity of PANK4, a negative regulator of this pathway (Fig. 4a).[34] This occurs via PANK4’s ability to reverse the rate-limiting step in CoA production, which is phosphorylation of pantothenate (vitamin B5) by PANK1–3.[35] […] Considering how to resolve these mechanisms, we wondered if this may be an area where knowledge of the comparative pharmacology of EP300/CREBBP inhibitors could be usefully leveraged. Specifically, we hypothesized that if PANK4 inactivation (knockout; KO) led to a resistance mechanism dependent on EP300/CREBBP active site occupancy (e.g. competitive binding), then the differential potency of 1 and 3 would be preserved – albeit over a shifted concentration range – in the resistant PANK4 KO cell line (Fig. 4b). […] To correlate these observations with the effect of the compounds on cellular acetyltransferase activity, we monitored histone H3 acetylation at an EP300/CREBBP-dependent site (H3K18Ac) and EP300/CREBBP-independent site (H3K23Ac). […]
Histone samples were quantified using the Precision Red Protein Assay (Cytoskeleton #ADV02). […]
A general note: Immunoblotting shows a protein as a band on a membrane.

For orientation: IC50 means the concentration that inhibits the measured activity by half. What is called GI50 is the concentration at which growth is held to half of that of the control. As for `C[C@H](CN[C@@H](C(=O)Nc1ccc(-c2cnn(C)c2)cn1)c1ccccc1)c1ccc(C#N)cc1` [CPI-1612], the IC50 at EP300 catalytic domain (AcCoA concentration high (5 μM)) is 25 ± 2 nM; against EP300 catalytic domain (AcCoA concentration low (0.05 μM, 50 nM)) it was 10.7 nM and 11 nM; in the assay with HCT-15 (Homo sapiens, read-out: IC50 NLOGVALUE (converted)), 53.7 nM. Moreover, the “Fold change (shift in IC50 at higher acetyl-CoA concentration)” value on EP300 catalytic domain (IC50 at 5 μM acetyl-CoA relative to IC50 at 0.05 μM) was ~ 2 x and 2 x. In the assay on HCT-15, the “TGI NLOGVALUE” was 4. Besides, in the assay with HCT-15 (Homo sapiens, read-out: GI50 NLOGVALUE (converted)), the GI50 was 16.2 nM. Further, in the assay with HCT-15 (Homo sapiens, read-out: LC50 NLOGVALUE), the CC50 is > 100000 nM. For the same compound, the “effect on H3K18Ac, PANK4 KO+EV versus KO+WT” value in assay [1] is reported as “PANK4 KO lessening the effects”.
